Assay [1] addresses T1, recombinant human CL receptor/RAMP1 (Homo sapiens, UniProt O60894+Q16602).
T1 construct: expressed in transfected cells
Nature of the assay: Recombinant receptor functional assay (cAMP, HTRF). It counts as cell-based. Particulars: HEK 293 cells, 1.2 nM human α-CGRP, cAMP determination. As for the experimental part: (§1) RECOMBINANT RECEPTOR: Human CL receptor (Genbank accession number L76380) was subcloned into the expression vector pIREShyg2 (BD Biosciences Clontech) as a 5′NheI and 3′ PmeI fragment. Human RAMP1 (Genbank accession number AJ001014) was subcloned into the expression vector pIRESpuro2 (BD Biosciences Clontech) as a 5′NheI and 3′NotI fragment. HEK 293 cells (human embryonic kidney cells; ATCC #CRL-1573) were cultured in DMEM with 4.5 g/L glucose, 1 mM sodium pyruvate and 2 mM glutamine supplemented with 10% fetal bovine serum (FBS), 100 units/mL penicillin and 100 μg/mL streptomycin, and maintained at 37° C. and 95% humidity. Cells were subcultured by treatment with 0.25% trypsin with 0.1% EDTA in HBSS. Stable cell line generation was accomplished by co-transfecting 10 μg of DNA with 30 μg Lipofectamine 2000 (Invitrogen) in 75 cm^2 flasks. CL receptor and RAMP1 expression constructs were co-transfected in equal amounts. […]
RECOMBINANT RECEPTOR FUNCTIONAL ASSAY: Cells were resuspended in DMEM/F12 (Hyclone) supplemented with 1 g/L BSA and 300 μM isobutyl-methylxanthine. […] Raw data were transformed into concentration of cAMP using a standard curve then dose response curves were plotted and inflection point (IP) values were determined.

For assay [2], the target named is T1, recombinant human CL receptor/RAMP1. Kind of assay: Recombinant receptor binding assay (125I-hCGRP). Particulars: membranes of HEK 293 cells expressing human CL receptor/RAMP1, 10 pM 125I-hCGRP, 3 h room temperature. On the procedure:
as §1
[formula] Where Y is observed CPM bound, Ymax is total bound counts, Ymin is non specific bound counts, (Ymax−Ymin) is specific bound counts, % Imax is the maximum percent inhibition, % I min is the minimum percent inhibition, radiolabel is the probe, and the Kd is the apparent dissociation constant for the radioligand for the receptor as determined by hot saturation experiments.

In patent US9227972B2, “Aliphatic spirolactam CGRP receptor antagonists” (Merck Sharp & Dohme Corp., priority 2012, dated 2016) one finds IC50 and Ki data, which are given here for three compounds.

T1 sequence (Q16602 23-461): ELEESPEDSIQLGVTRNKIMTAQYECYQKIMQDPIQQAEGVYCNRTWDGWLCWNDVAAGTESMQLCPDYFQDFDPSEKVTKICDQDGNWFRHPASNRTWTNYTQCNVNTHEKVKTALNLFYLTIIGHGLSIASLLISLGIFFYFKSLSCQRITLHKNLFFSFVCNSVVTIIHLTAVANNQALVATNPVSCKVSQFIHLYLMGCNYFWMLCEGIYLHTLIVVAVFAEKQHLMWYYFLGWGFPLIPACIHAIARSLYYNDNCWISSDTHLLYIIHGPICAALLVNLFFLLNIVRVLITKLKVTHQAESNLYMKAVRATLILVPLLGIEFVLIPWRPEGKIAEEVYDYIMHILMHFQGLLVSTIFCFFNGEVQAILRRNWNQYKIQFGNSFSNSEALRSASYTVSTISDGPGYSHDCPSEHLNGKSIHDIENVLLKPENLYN
T1 sequence (O60894 27-148): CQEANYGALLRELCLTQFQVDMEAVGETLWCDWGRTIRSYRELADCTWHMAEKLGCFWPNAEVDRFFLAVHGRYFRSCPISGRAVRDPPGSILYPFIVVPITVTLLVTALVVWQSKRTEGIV

For orientation: IC50 means the concentration that inhibits the measured activity by half. `C[C@@H]1[C@H](c2ccccc2)C[C@H](NS(=O)(=O)c2cnc3c(c2)C[C@@]2(C3)C(=O)Nc3ncccc32)C(=O)N1CC(F)(F)F` [Example 3, (6S)—N-[(3S,5S,6R)-6-Methyl-2-oxo-5-phenyl-1-(2,2,2-trifluoroethyl)piperidin-3-yl]-2′-oxo-1′,2′,5,7-tetrahydrospiro[cyclopenta[b]pyridine-6,3′-pyrrolo[2,3-b]pyridine]-3-sulfonamide]: the IC50 in assay [1] came to 3720 nM.
Still for that read-out and setting: the figure for `CC1C(c2cc(F)cc(F)c2F)CC(CC=Cc2cnc3c(c2)C[C@@]2(C3)C(=O)Nc3ncccc32)C(=O)N1CC(F)(F)F` (stereo partly drawn) [Example 1, (3′S)-3-(3-(6-Methyl-2-oxo-1-(2,2,2-trifluoroethyl)-5-(2,3,5-trifluorophenyl)piperidin-3-yl)prop-1-en-1-yl)-5,7-dihydrospiro[cyclopenta[b]pyridine-6,3′-pyrrolo[2,3-b]pyridin]-2′(1′H)-one] is 7.2 nM.
The term Ki denotes the equilibrium dissociation constant of an inhibitor or competing ligand from its target. With `C[C@@H]1[C@H](c2ccccc2)C[C@H](NCC(F)(F)c2cnc3c(c2)C[C@@]2(C3)C(=O)Nc3ncccc32)C(=O)N1CC(F)(F)F` [Example 2, (6S)-3-(1,1-Difluoro-2-(((3S,5S,6R)-6-methyl-2-oxo-5-phenyl-1-(2,2,2-trifluoroethyl)piperidin-3-yl)amino)ethyl)-5,7-dihydrospiro[cyclopenta[b]pyridine-6,3′-pyrrolo[2,3-b]pyridin]-2′(1′H)-one], the Ki in assay [2] came out at 409 nM.
